What was measured:
Assay type in all cases: biochemical
[1] = tested on: recombinant Amaranthus tuberculatus PPO2 G399A
[2] = tested on: recombinant Amaranthus tuberculatus PPO2 ΔG210
[3] = tested on: recombinant Amaranthus tuberculatus PPO2 R128L

Cc1nn(-c2cc(CC(Cl)C(=O)O)c(Cl)cc2F)c(=O)n1C(F)F (stereo not shown) [Carfentrazone]
Resistance factor G399A (IC50 mutant / IC50 sensitive PPO2) [1]: 116 | Resistance factor ΔG210 (IC50 mutant / IC50 sensitive PPO2) [2]: 3957 | Resistance factor R128L (IC50 mutant / IC50 sensitive PPO2) [3]: 3

COC(=O)CSc1cc(/N=c2\sc(=O)n3n2CCCC3)c(F)cc1Cl [Fluthiacet-methyl]
Resistance factor G399A (IC50 mutant / IC50 sensitive PPO2) [1]: 3567 | Resistance factor ΔG210 (IC50 mutant / IC50 sensitive PPO2) [2]: 94 | Resistance factor R128L (IC50 mutant / IC50 sensitive PPO2) [3]: 4

CCOC(=O)C(C)OC(=O)c1cc(Oc2ccc(C(F)(F)F)cc2Cl)ccc1[N+](=O)[O-] (stereo not shown) [Lactofen]
Resistance factor G399A (IC50 mutant / IC50 sensitive PPO2) [1]: 28167 | Resistance factor ΔG210 (IC50 mutant / IC50 sensitive PPO2) [2]: 18271 | Resistance factor R128L (IC50 mutant / IC50 sensitive PPO2) [3]: 2812

C#CCN(C)c1c(C#N)cnn1-c1nn2c(c1Cl)CCCC2 [Pyraclonil]
Resistance factor G399A (IC50 mutant / IC50 sensitive PPO2) [1]: 799 | Resistance factor ΔG210 (IC50 mutant / IC50 sensitive PPO2) [2]: 782 | Resistance factor R128L (IC50 mutant / IC50 sensitive PPO2) [3]: 0

Cc1nn(-c2cc(NS(C)(=O)=O)c(Cl)cc2Cl)c(=O)n1C(F)F [Sulfentrazone]
Resistance factor G399A (IC50 mutant / IC50 sensitive PPO2) [1]: 282

CCOC(=O)COc1cc(-c2nn(C)c(OC(F)F)c2Cl)c(F)cc1Cl [Pyraflufen-ethyl]
Resistance factor G399A (IC50 mutant / IC50 sensitive PPO2) [1]: 11816 | Resistance factor ΔG210 (IC50 mutant / IC50 sensitive PPO2) [2]: 1083 | Resistance factor R128L (IC50 mutant / IC50 sensitive PPO2) [3]: 1

C#CCN1C(=O)COc2cc(F)c(N3C(=O)C4=C(CCCC4)C3=O)cc21 [Flumioxazin]
Resistance factor G399A (IC50 mutant / IC50 sensitive PPO2) [1]: 868 | Resistance factor ΔG210 (IC50 mutant / IC50 sensitive PPO2) [2]: 3157 | Resistance factor R128L (IC50 mutant / IC50 sensitive PPO2) [3]: 2631

CC(C)Oc1cc(-n2nc(C(C)(C)C)oc2=O)c(Cl)cc1Cl [Oxadiazon]
Resistance factor G399A (IC50 mutant / IC50 sensitive PPO2) [1]: 285 | Resistance factor ΔG210 (IC50 mutant / IC50 sensitive PPO2) [2]: 151 | Resistance factor R128L (IC50 mutant / IC50 sensitive PPO2) [3]: 1

CCOc1cc(Oc2ccc(C(F)(F)F)cc2Cl)ccc1[N+](=O)[O-] [Oxyfluorfen]
Resistance factor G399A (IC50 mutant / IC50 sensitive PPO2) [1]: 18548 | Resistance factor ΔG210 (IC50 mutant / IC50 sensitive PPO2) [2]: 982 | Resistance factor R128L (IC50 mutant / IC50 sensitive PPO2) [3]: 74

O=C(O)c1cc(Oc2ccc(C(F)(F)F)cc2Cl)ccc1[N+](=O)[O-] [Acifluorfen]
Resistance factor G399A (IC50 mutant / IC50 sensitive PPO2) [1]: >541 | Resistance factor ΔG210 (IC50 mutant / IC50 sensitive PPO2) [2]: >541 | Resistance factor R128L (IC50 mutant / IC50 sensitive PPO2) [3]: >541

C=CCOC(=O)C(C)(C)OC(=O)c1cc(-n2c(=O)cc(C(F)(F)F)n(C)c2=O)ccc1Cl [Butafenacil]
Resistance factor G399A (IC50 mutant / IC50 sensitive PPO2) [1]: 741 | Resistance factor ΔG210 (IC50 mutant / IC50 sensitive PPO2) [2]: 17578 | Resistance factor R128L (IC50 mutant / IC50 sensitive PPO2) [3]: 23
